Data published in patent US4963570A, “1-(acetylaminophenyl)-2-aminopropanone derivatives and pharmaceutical compositions thereof” (Laboratoire L. Lafon, priority 1983, dated 1990).
“Also recorded” adds a separate entry of the source. Structures can show the parent of a compound that is named as a salt.

Experiments:
[1] = tested on: mice; assay: overall behavior and reactivities in mice; assay type: in vivo, mouse; conditions: mice, i.p.; dose not stated
Method: (§1) Groups of three animals are observed before and then 0.25 hour, 0.50 hour, 1 hour, 2 hours, 3 hours and 24 hours after the administration of CRL 41 224.

[2] = tested on: rats; assay: overall behavior and reactivities in rats; assay type: in vivo, rat; conditions: i.p., dose not stated, hydrochloride
Method: as §1

[3] = tested on: mice; assay: interaction with apomorphine in mice; assay type: in vivo, mouse; conditions: i.p.; dose not stated
Method: Groups of 6 mice receive CRL 41 224 0.5 hour before the subcutaneous injection of 1 or 16 mg/kg of apomorphine.

[4] = tested on: rats; assay: interaction with apomorphine in rats; assay type: in vivo, rat; conditions: i.p., dose not stated
Method: CRL 41 224 is administered to groups of 6 rats 0.5 hour before the subcutaneous injection of 0.5 mg/kg of apomorphine.

[5] = tested on: rats; assay: interaction with amphetamine; assay type: in vivo, rat; conditions: rats, i.p.; dose not stated
Method: Amphetamine (2 mg/kg) is injected intraperitoneally into groups of 6 rats 30 minutes after the administration of CRL 41 224.

[6] = tested on: mice; assay: interaction with reserpine; assay type: in vivo, mouse; conditions: i.p.; dose not stated
Method: Four hours after the intraperitoneal injection of 2.5 mg/kg of reserpine, groups of 6 mice receive CRL 41 224.

[7] = tested on: mice; assay: interaction with oxotremorine; assay type: in vivo, mouse; conditions: i.p.; dose not stated
Method: CRL 41 224 is administered to groups of 6 mice 0.5 hour before the intraperitoneal injection of 0.5 mg/kg of oxotremorine.

[8] = tested on: mice; assay: four plate test, traction and electric shock; assay type: in vivo, mouse; conditions: i.p.; dose not stated
Method: The test is performed on groups of 10 mice 30 minutes after the administration of CRL 41 224.

[9] = tested on: mice; assay: action on the spontaneous motility (actimeter); assay type: in vivo, mouse; conditions: mice, i.p.; dose not stated
Method: 0.5 hour after they have received CRL 41 224, the mice (6 per dose, 12 control animals) are placed in an actimeter, where their motility is recorded for 30 minutes.

[10] = tested on: mice; assay: motility reduced by habituation to the enclosure; assay type: in vivo, mouse; conditions: i.p., dose not stated
Method: After they have stayed in the actimeters for 18 hours, the mice (6 per dose, 12 control animals) receive CRL 41 224. They are immediately returned to their respective enclosures and, half an hour later, their motility is recorded for 30 minutes.

[11] = tested on: mice; assay: motility reduced by hypoxic aggression; assay type: in vivo, mouse; conditions: i.p., dose not stated
Method: Half an hour after they have received CRL 41 224, the mice (10 per dose, 20 control animals) are subjected to acute hypobaric anoxia [pressure reduction of 600 mm Hg (i.e. about 8×10^4 Pa) in 90 seconds; release of vacuum in 45 seconds] and are then placed in an actimeter, where their motility is recorded for 10 minutes.

[12] = tested on: mice; assay: interaction with barbital; assay type: in vivo, mouse; conditions: i.p.; dose not stated
Method: Half an hour after the administration of CRL 41 224, groups of 10 mice receive an intraperitoneal injection of barbital (220 mg/kg).

[13] = tested on: mice; assay: action on the behavioral despair; assay type: in vivo, mouse; conditions: i.p., dose not stated
Text: Half an hour after they have received CRL 41 224, groups of 6 mice are placed in a beaker filled with water to a height of 6 cm. The total period of immobility between the 2nd and 6th minutes following immersion is noted.

[14] = tested on: man; assay: clinical trials; assay type: in vivo, human; conditions: man, tablets or gelatine capsules 5 to 75 mg, 1 to 3 per day
[15] = tested on: male mice; assay: influence of catecholamines on hyperactivity in mice; assay type: in vivo, mouse
Method: A further series of assays was carried out on mice according to the teaching of S. L. HANDLEY et al. "Influences of catecholamines on dexamphetamine, induced changes in locomotor activity", Psychopharmacology 58, 283-288 (1978), in order to observe a potential influence of dopamine or moradrenaline on the hyperactivity induced by CRL 41 152.
After a habituation period of 1.5 h to the actimeters, male mice (grouped into batches of 10 animals each and a control batch of 20 animals) were administered (under slight anesthesia with ether) per intraventriculocerebral injection (i.e. I.V.C. route) with (i) either 10 μg of noradrenaline, or 10 μg of dopamine or 10 μl (0.5 μl/second) of saline solution, then (ii) 5 minutes later, with CRL 41 152 (in solution in distilled water) per I.P. route in a volume of 20 ml/kg, immediately before replacing the mice in the actimeters vherein their motility was recorded for 1 hour by measuring the number of crossed rays per period of 5 minutes).
Batches receiving CRL 41 152 per I.P. route with noradreanaline or dopamine per I.V.C. route were compared with (i) the control batch receiving the saline solution per I.V.C. route then distilled water per I.P. route, and (ii) batches receiving only noradrenaline, dopamine (per I.V.C. route) or CRL 41 152 (per I.P. route).

[16] = tested on: male mice; assay: interaction with proadifen: motility; assay type: in vivo, mouse
Method: (§2) Two series of experiments were carried out. In the first one, male mice (12 per dose, 12 control animals) were administered per I.P. route (i) with proadifen (75 mg/kg) at T-3 h, then (ii) with CRL 41 152 at T-0.5 h. At T=0 the mice were placed in actimeters, where their motility was recoded for 0.5 h. In the second one male mice (12 per dose, 12 control animals) were administered with proadifen and CRL 41 152 as indicated hereinabove, then subcutaneously with apomorphine (16 mg/kg) at T=0 in order to appreciate the potential variation of the hypothermia induced by apomorphine.
(§3) In these two series CRL 41 152, in solution in distilled water, was administered per I.P. route to male mice in a volume of 20 ml/kg.

[17] = tested on: male mice; assay: interaction with proadifen: hypothermia induced by apomorphine; assay type: in vivo, mouse
Method: as §2, §3

[18] = tested on: White New Zealand gravid female rabbits; assay: teratogenic study; assay type: in vivo, rabbit
[19] = tested on: CNS; assay: overall neuropsychopharmacological (CNS) profile; assay type: in vivo, mouse; rat; conditions: i.p., mice and rats; dose not stated; hydrochloride
Method: The neuropsychopharmacological study of CRL 41 219 was carried out as indicated above for CRL 41 224.
The neuropsychopharmacological study of CRL 41 220 was carried out in accordance with the procedures given above for CRL 41 224.

[20] = tested on: peripheral α-adrenergic stimulation; assay: signs of peripheral adrenergic stimulation; assay type: in vivo, mouse; rat; conditions: i.p.; dose not stated
Method: as §1

[21] = tested on: mice; assay: toxicity to grouped mice compared with isolated mice; assay type: in vivo, mouse
[22] = water solubility of the product; assay type: physicochemical
Method: The 39 g of 1-(4-acetylaminophenyl)-2-chloropropanone thus obtained are dissolved in 200 ml of isopropylamine. The resulting reaction medium is heated under reflux for 6 hours. The excess isopropylamine is evaporated off in vacuo. The evaporation residue, which is in the form of a viscous oil, is taken up with 200 ml of anhydrous ethanol and the hydrochloride is recipitated by means of a stream of HCl gas.

[23] = tested on: mice; assay: interaction with barbital; assay type: in vivo, mouse; conditions: gastric route
[24] = tested on: rats; assay: action on stereotypies in rats (α-methyltyrosine, haloperidol, reserpine)
[25] = proadifen 75 mg/kg i.p. then CRL 41 152

Compound: CC(=O)Nc1ccc(C(=O)C(C)NC(C)C)cc1 (centres unmarked) [CRL 41 152, 1-(4-acetylaminophenyl)-2-isopropylaminopropanone hydrochloride]
- excitation in mice [1]: excitation with hyperreactivity in mice
- stereotype movements in rats [2]: stereotype movements in rats; also recorded: induces stereotype movements
- hypothermia induced by apomorphine [3]: antagonism of the hypothermia induced by apomorphine
- stereotypies induced by apomorphine [4]: potentiation of the stereotypies induced by apomorphine
- stereotypies induced by amphetamine [5]: potentiation of the stereotypies induced by apomorphine or amphetamine
- hypothermia induced by reserpine [6]: antagonism of the hypothermia induced by apomorphine, oxotremorine or reserpine
- ptosis induced by reserpine [6]: antagonism of the ptosis induced by reserpine
- hypothermia induced by oxotremorine [7]: antagonism of the hypothermia induced by apomorphine, oxotremorine
- trembling caused by oxotremorine [7]: antagonism of the trembling caused by oxotremorine
- convulsant effects of electric shock [8]: anticonvulsant effects
- spontaneous motility / motor activity [9]: an increase in the spontaneous motility in mice
- motor activity after habituation to the enclosure [10]: a resumption in the motor activity of mice accustomed to their enclosure
- motor recovery after hypoxic aggression [11]: an improvement in the motor recovery in mice after acute hypoxia
- sleep induced by barbital [12]: antagonism of the sleep induced by barbital
- period of immobility or "despair" [13]: a reduction in the immobility
- clinical result: depressions, hypersomnia and GELINEAU's disease [14]: excellent drug for treating depressions in man as well as hypersomnia and GELINEAU's disease
- effect of prior dopamine on the motor activity caused ([15]; dopamine 10 μg I.V.C.): did not modify the motor activity caused by CRL 41 152
- motor activity ([15]; i.p., 8 mg/kg, one-hour recording): distinct statistically significant increase in motor activity
- effect of prior noradrenaline on the motor stimulant effect ([15]; noradrenaline 10 μg I.V.C.): distinct statistically significant decrease in the motor stimulant effect
- spontaneous motility ([16]; i.p., administered alone): increases the spontaneous motility in mice
- effect of proadifen on the induced hypermotility [16, 25]: does not cause a distinct reduction of the hypermotility
- hypothermia induced by apomorphine ([17]; i.p., 8 and especially 32 mg/kg, apomorphine 16 mg/kg s.c.): antagonism vis-a-vis the hypothermia induced by apomorphine
- righting behaviour and stereotypies induced by apomorphine ([17]; i.p., apomorphine 16 mg/kg s.c.): Neither proadifen, nor CRL 41 152, nor their combination modify the righting behaviour
- effect of proadifen on antagonism vis-a-vis the hypothermic effect of apomorphine [17, 25]: does block the antagonism
- teratogenic effect [18]: does not exhibit any harmful teratogenic effect
- overall action on the CNS [19]: stimulant effects; also recorded: antidepressant effects
- exophthalmos [20]: absent
- mydriasis [20]: mydriasis
- peripheral adrenergic stimulation, overall [20]: effects which may reflect peripheral adrenergic stimulation
- salivation [20]: absent
- toxicity to grouped mice compared with isolated mice [21]: do not increase the toxicity to grouped mice
- water solubility [22]: very water-soluble
- interaction with barbital, kinetic study [23]: clearly showed the interest of CRL 41 152 as awakening agent
- effect of haloperidol on induced stereotypies ([24]; haloperidol 0.25 mg/kg i.p. 0.5 h before): almost totally prevents the appearance of stereotypies
- effect of haloperidol on induced stereotypies ([24]; haloperidol 0.5 mg/kg i.p. 0.5 h before): totally inhibits the said stereotypies
- suppression of induced stereotype movements by prior injection of alpha-methyltyrosine ([24]; i.p.): not suppressed
- effect of reserpine on induced stereotypies ([24]; reserpine 4 mg/kg i.p. 24 hours before): only a moderate reduction of the stereotypies
- inhibition by α-methyltyrosine of the induced stereotypies ([24]; α-methyltyrosine 128 mg/kg i.p. 2.5 h before 30 mg/kg i.p. CRL 41 152): 4%
